As usually defined, the IC50 is the concentration that gives 50% inhibition. A low value points to higher potency.

In the assay the target is T1, human intracellular domain of KDR (VEGF Receptor-2) (Homo sapiens, UniProt P35968).
T1 construct: A fusion protein containing the intracellular domain (amino acids 793 to 1357) of the KDR and N-terminally tagged to GST; made in house; host or cells: Sf9 insect cells (baculovirus, pDEST20) for GST-KDR-cyt; E. coli BL21 (pGEX-4T-1) for GST-PLCγ
In words: In vitro KDR kinase assay. It counts as biochemical. The following applies: IC50 as molar concentration; GST-KDR-cyt, substrate phospholipase Cγ, ATP 100 μM, 30 min room temperature, time-resolved fluorometry. As for the experimental part:
The intracellular domain of the KDR receptor was used in the in vitro KDR assay. This domain contains the tyrosine kinase domain of KDR, and when expressed in Sf9 cells, this domain is constitutively active i.e. the kinase domain is phosphorylated on tyrosine residues.
The compounds to be tested were dissolved in DMSO at 10 mM, stored at −20° C. and protected from light. The maximum concentration of DMSO in the in vitro assay was 0.1%. Control samples received the same concentration of solvent as the samples treated with the test compounds.
For the kinase assays, black 96 wells MaxiSorp microtiter plates were coated by an overnight incubation with 100 μl/well of a 2.5 μg/ml solution of phospholipase Cγ in TBS buffer (40 mM Tris-HCl, pH 7.4, 20 mM Mg(C2H3O2)2, 0.02% NaN3) at 4° C. The plates were washed 3 times with TBS buffer containing 0.1% Tween-20, and the residual binding sites were masked by incubation with 1% BSA in TBS buffer containing 0.1% Tween-20 for 1 h. The plates were washed again and the test compounds were added at final concentrations up to 10 μM, together with ATP at the final concentration of 100 μM in 50 μl TBS buffer/well. Then, 50 μl of the human intracellular domain of KDR (VEGF Receptor-2) finally diluted 3000-3500 fold were added and were incubated for 30 min at room temperature. The plates were washed and 100 μl of the Europium labelled PY-20 anti-phosphotyrosine antibody (Wallac, FIN) were incubated in each well at the concentration of approximately 114 ng/ml for 2 h. Then, the plates were washed and 100 μl of enhancer solution (Wallac, FIN) were incubated in each well for 5 min in the dark. The plates were read in a Victor 1420 multilabel counter, using a Europium protocol for time-resolved fluorometry (Wallac, FIN): excitation 340 nm, emission 615 nm, sample pulse cycle 400 μs. Fluorescence was measured for 400 μs between flashes after a delay time of 400 μs. The background measured in the absence of enzyme was subtracted from all samples. The molar concentrations that inhibited 50% of the maximal enzymatic activity (IC50) were calculated from the dose-response curve, by fitting a straight line between the two concentrations immediately above and below the 50% inhibition point (i.e. by solving the equation y=a+bx).

T1 sequence (P35968 794-1356 limits assumed): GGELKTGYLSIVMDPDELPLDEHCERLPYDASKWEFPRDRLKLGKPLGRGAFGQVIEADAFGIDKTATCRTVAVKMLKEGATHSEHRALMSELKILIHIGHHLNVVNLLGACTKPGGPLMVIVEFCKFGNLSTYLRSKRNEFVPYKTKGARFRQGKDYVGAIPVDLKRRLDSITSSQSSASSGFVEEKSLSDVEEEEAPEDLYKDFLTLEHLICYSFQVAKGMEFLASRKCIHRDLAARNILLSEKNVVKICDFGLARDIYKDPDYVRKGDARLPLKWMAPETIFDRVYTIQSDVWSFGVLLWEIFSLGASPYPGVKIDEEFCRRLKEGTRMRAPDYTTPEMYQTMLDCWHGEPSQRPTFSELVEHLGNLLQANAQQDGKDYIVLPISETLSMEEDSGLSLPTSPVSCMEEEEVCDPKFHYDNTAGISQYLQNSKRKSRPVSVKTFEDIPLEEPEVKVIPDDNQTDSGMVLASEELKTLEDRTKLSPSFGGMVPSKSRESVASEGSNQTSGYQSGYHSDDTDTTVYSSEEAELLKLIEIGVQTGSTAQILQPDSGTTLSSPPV

In turn, `O=C(NOCc1cccc(C#CCO)c1)c1ccccc1NCc1ccncc1` [Compound 50, N-[3-(3-Hydroxy-prop-1-ynyl)-benzyloxy]-2-[(pyridin-4-ylmethyl)-amino]-benzamide] had an IC50 of 63.1 nM.
In the case of `N#Cc1ccccc1CONC(=O)c1ccccc1NCc1ccncc1` [Compound 75, N-(2-Cyano-benzyloxy)-2-[(pyridin-4-ylmethyl)-amino]-benzamide], the concentration for half-maximal inhibition (IC50) was 63.1 nM.
With `COc1ccc(CNc2ncccc2C(=O)NOCc2ccc(OC)cc2)cc1` [Compound 35, 2-(4-Methoxy-benzylamino)-N-(4-methoxy-benzyloxy)-nicotinamide] the figure was 1000 nM; with `N#Cc1ccc(CONC(=O)c2ccccc2NCc2ccnc(NC(=O)CO)c2)cc1` [compound 224], 6.31 nM; with `O=C(CC1NC(=O)NC1=O)Nc1cc(CNc2ccccc2C(=O)NOCC2CCCC2)ccn1` (centres unmarked) [compound 228], 6.31 nM.
With `O=C(NOCc1ccc(CO)cc1)c1ccccc1NCc1ccncc1` [Compound 58, N-(4-Hydroxymethyl-benzyloxy)-2-[(pyridin-4-ylmethyl)-amino]-benzamide] the figure was 63.1 nM; with `CC(Nc1ccccc1C(=O)NOCc1ccc(C#N)cc1)c1ccncc1` (centres unmarked) [compound 244], 63.1 nM.
In the case of `CC(=O)OCC(=O)Nc1cc(CNc2ccccc2C(=O)NOCC2CCCC2)ccn1` [compound 223] it was 31.6 nM; in that of `N#Cc1ccc(CONC(=O)c2ccccc2NCc2ccc(=O)[nH]c2)cc1` [compound 247], 50.1 nM.
With `O=C(NOCc1ccc(F)cc1)c1ccccc1NCc1ccnc(Br)c1` [Compound 204, 2-[(2-Bromo-pyridin-4-ylmethyl)-amino]-N-(4-fluoro-benzyloxy)benzamide], the IC50 was 63.1 nM.
`N#Cc1cccc(CONC(=O)c2ccccc2NCc2ccncc2)c1` [Compound 74, N-(3-Cyano-benzyloxy)-2-[(pyridin-4-ylmethyl)-amino]-benzamide]: the IC50 is 63.1 nM.
In turn, `N#Cc1ccc(Br)c(CONC(=O)c2ccccc2NCc2ccncc2)c1` [Compound 81, N-(2-Bromo-5-cyano-benzyloxy)-2-[(pyridin-4-ylmethyl)-amino]-benzamide] gave a 50% inhibitory concentration (IC50) of 50.1 nM.
With `O=C(NOCC1CCCCO1)c1ccccc1NCc1ccncc1` (centres unmarked) [Compound 142, 2-[(Pyridin-4-ylmethyl)-amino]-N-(tetrahydro-pyran-2-ylmethoxy)-benzamide] the figure was 39.8 nM.
With `Cc1ccc(CONC(=O)c2ccccc2NCc2ccncc2)cc1C(F)(F)F` [Compound 62, N-(4-Methyl-3-trifluoromethyl-benzyloxy)-2-[(pyridin-4-ylmethyl)-amino]-benzamide] the figure was 63.1 nM.
In the case of `COc1cc(C#N)ccc1CONC(=O)c1cccnc1NCc1ccncc1` [Compound 162, N-(4-Cyano-2-methoxy-benzyloxy)-2-[(pyridin-4-ylmethyl)-amino]-nicotinamide] it was 63.1 nM; in that of `O=C(NOCc1cccc(Cl)c1)c1ccccc1NCc1ccncc1` [Compound 11, N-(3-Chloro-benzyloxy)-2-[(pyridin-4-ylmethyl)-amino]-benzamide], 126 nM.
Regarding `N#Cc1ccc(CONC(=O)c2ccccc2NCc2ccncc2)cc1` [Compound 27, N-(4-cyano-benzyloxy)-2-[(pyridin-4-ylmethyl)-amino]-benzamide], it took 12.6 nM to reach half-maximal inhibition (IC50).
Turning to `O=C(NOCC1CCCO1)c1ccccc1NCc1ccncc1` (centres unmarked) [Compound 135, 2-[(Pyridin-4-ylmethyl)-amino]-N-(tetrahydro-furan-2-ylmethoxy)-benzamide], half-maximal inhibition (IC50) was put at 79.4 nM.
On to `O=C(NOCc1ccc([N+](=O)[O-])cc1)c1ccccc1NCc1ccncc1` [Compound 2, N-(4-Nitro-benzyloxy)-2-[(pyridin-4-ylmethyl)-amino]-benzamide], for which the IC50 was 126 nM.
In the case of `N#Cc1ccc(CONC(=O)c2ccccc2NCc2ccc3c(c2)CCO3)cc1` [Compound 196, N-(4-Cyano-benzyloxy)-2-[(2,3-dihydro-benzofuran-5-ylmethyl)-amino]-benzamide] it was 79.4 nM; in that of `CC1(C)[C@H]2CC[C@@H](CONC(=O)c3ccccc3NCc3ccncc3)[C@@H]1C2` [Compound 134], 25.1 nM; in that of `O=C(NOCc1cnc(Cl)s1)c1ccccc1NCc1ccncc1` [Compound 106, N-(2-Chloro-thiazol-5-ylmethoxy)-2-[(pyridin-4-ylmethyl)-amino]-benzamide], 50.1 nM.
`N#Cc1ccc(CONC(=O)c2ccccc2NCc2ccnc(NC(=O)NCCO)c2)cc1` [compound 220] had a half-maximal inhibitory concentration (IC50) of 7.94 nM.
`O=C(NOCC1CCOCC1)c1ccccc1NCc1ccnc2ccccc12` [compound 234] had a half-inhibitory concentration (IC50) of 63.1 nM.
With `O=C(O)CNC(=O)Nc1cc(CNc2ccccc2C(=O)NOCC2CCCC2)ccn1` [compound 217] the figure was 7.94 nM; with `CS(=O)(=O)Nc1cc(CNc2ccccc2C(=O)NOCC2CCCC2)ccn1` [Compound 208, N-Cyclopentylmethoxy-2-[(2-methanesulfonylamino-pyridin-4-ylmethyl)-amino]-benzamide], 79.4 nM.
In the case of `O=C(NOCc1cccc(I)c1)c1ccccc1NCc1ccncc1` [Compound 46, N-(3-Iodo-benzyloxy)-2-[(pyridin-4-ylmethyl)-amino]-benzamide] it was 63.1 nM; in that of `N#Cc1ccc(CONC(=O)c2ccccc2NCc2ccncc2)c(Cl)c1` [Compound 78, N-(2-Chloro-4-cyano-benzyloxy)-2-[(pyridin-4-ylmethyl)-amino]-benzamide], 15.8 nM; in that of `O=C(NOCC12CC3CC(CC(C3)C1)C2)c1ccccc1NCc1ccncc1` [Compound 132, N-(Adamantan-1-ylmethoxy)-2-[(pyridin-4-ylmethyl)-amino]-benzamide], 100 nM.
In the case of `O=C(NOCCCc1ccccc1)c1ccccc1NCc1ccncc1` [Compound 31, N-(3-Phenyl-propoxy)-2-[(pyridin-4-ylmethyl)-amino]-benzamide] it was 126 nM; in that of `CCC(CC)CONC(=O)c1ccccc1NCc1ccncc1` [Compound 117, N-(2-Ethyl-butoxy)-2-[(pyridin-4-ylmethyl)-amino]-benzamide], 12.6 nM; in that of `O=C(NOCc1cc(Cl)cc(Cl)c1)c1ccccc1NCc1ccncc1` [Compound 17, N-(3,5-Dichloro-benzyloxy)-2-[(pyridin-4-ylmethyl)-amino]-benzamide], 63.1 nM.
As to `CCOC(=O)Nc1cc(CNc2ccccc2C(=O)NOCc2ccc(C#N)cc2)ccn1` [compound 225], the half-inhibitory concentration (IC50) is 7.94 nM.
In the case of `N#Cc1ccc(CONC(=O)c2ccccc2NCc2ccncc2)c(I)c1` [Compound 80, N-(4-Cyano-2-iodo-benzyloxy)-2-[(pyridin-4-ylmethyl)-amino]-benzamide] it was 39.8 nM; in that of `COc1c(F)c(F)c(CONC(=O)c2ccccc2NCc2ccncc2)c(F)c1F` [Compound 43, 2-[(Pyridin-4-ylmethyl)-amino]-N-(2,3,5,6-tetrafluoro-4-methoxy-benzyloxy)benzamide], 20 nM; in that of `O=C(NOCC1CCCC1)c1ccccc1NCc1ccncc1` [Compound 113, N-Cyclopentylmethoxy-2-[(pyridin-4-ylmethyl)-amino]-benzamide], 2.51 nM.
With `N#Cc1ccc(CONC(=O)c2ccccc2NCc2ccncc2)cc1Br` [Compound 77, N-(3-Bromo-4-cyano-benzyloxy)-2-[(pyridin-4-ylmethyl)-amino]-benzamide] the figure was 39.8 nM; with `O=C(NOCc1ccc(Br)cc1)c1ccccc1NCc1ccncc1` [Compound 44, N-(4-Bromo-benzyloxy)-2-[(pyridin-4-ylmethyl)-amino]-benzamide], 50.1 nM.
As for `O=C(NOCc1ccc(Cl)s1)c1ccccc1NCc1ccncc1` [Compound 111, N-(5-Chloro-thiophen-2-ylmethoxy)-2-[(pyridin-4-ylmethyl)-amino]-benzamide], the half-inhibitory concentration (IC50) is 79.4 nM.
With `O=C(NOCc1ccccc1Cl)c1ccccc1NCc1ccncc1` [Compound 12, N-(2-Chloro-benzyloxy)-2-[(pyridin-4-ylmethyl)-amino]-benzamide] the figure was 15.8 nM; with `N#Cc1ccc(CONC(=O)c2cccnc2NCc2ccncc2)cc1` [Compound 156, N-(4-Cyano-benzyloxy)-2-[(pyridin-4-ylmethyl)-amino]-nicotinamide], 63.1 nM.

For the origin of these results see patent US8034811B2, “Hydroxamic acid esters and pharmaceutical use thereof” (Leo Pharma A/S, priority 2003, dated 2011).
